Values quoted from earlier work as cited in patent US20240423899A1, “LONGEVITY MOISTURIZING CREAM” (Wellbeam Consumer Health Intermediate, LLC, priority 2023, published 2024).

Tested on: skin
Details: topical application

Compound: C=C[C@@](C)(/C=C/c1ccc(O)cc1)CCC=C(C)C [bakuchiol]
- irritating effect on the skin: no irritating effect
- lines and wrinkles, pigmentation, elasticity, firmness, and overall reduction in photo-damage: significant improvement
